Reference: patent US5725838A, “Radiolabeled D4 receptor ligands” (Resolution Pharmaceuticals, Inc., priority 1996, dated 1998)

Assays:
[1] = biological target: T1, human D4 receptor (D4.2 sub-type) (Homo sapiens, UniProt P21917, DEL265-296); assay: D4 receptor binding, 3H-spiperone displacement; conditions: membranes of cells stably transfected with human D4.2; 0.25 nM 3H-spiperone; Cheng-Prusoff
T1 construct: expressed in transfected cells; host or cells: HEK 298 (so in the source); probably HEK 293), stably transfected, membrane preparation
T1 sequence (P21917 with tags, fused parts or gaps DEL265-296): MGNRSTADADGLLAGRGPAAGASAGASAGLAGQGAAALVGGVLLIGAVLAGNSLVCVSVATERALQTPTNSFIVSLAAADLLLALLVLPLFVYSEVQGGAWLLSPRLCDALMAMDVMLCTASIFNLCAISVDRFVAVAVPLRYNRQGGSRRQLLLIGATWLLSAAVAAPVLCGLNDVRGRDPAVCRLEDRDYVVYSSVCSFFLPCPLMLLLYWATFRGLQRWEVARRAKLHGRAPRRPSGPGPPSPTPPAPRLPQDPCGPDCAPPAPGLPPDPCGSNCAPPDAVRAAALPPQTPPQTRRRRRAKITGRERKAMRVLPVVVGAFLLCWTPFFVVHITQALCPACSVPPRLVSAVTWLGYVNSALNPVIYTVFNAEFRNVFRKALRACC
Protocol: The potency of the test compound to reduce ^3 H-spiperone binding directly correlated to its binding affinity for the receptor.
Individual filter disks were put in scintillation vials (Biovials, Bechman).
Ki was calculated by the Cheng and Prustoff transformation: […]
where [L] is the concentration of ^3 H-spiperone used in the assay and KD is the dissociation constant of ^3 H-spiperone determined independently under the same binding conditions.

[2] = biological target: T2, human D2 receptor (short isoform) (Homo sapiens, UniProt P14416); assay: D2 receptor binding, 3H-spiperone displacement; conditions: membranes of GH4 C1 (rat pituitary) cells stably transfected with human D2 short isoform; 0.25 nM 3H-spiperone; Cheng-Prusoff
T2 construct: expressed in transfected cells; host or cells: GH4 C1 (rat pituitary) cells, stably transfected, membrane preparation
T2 sequence (P14416 1-414 isoform P14416-2): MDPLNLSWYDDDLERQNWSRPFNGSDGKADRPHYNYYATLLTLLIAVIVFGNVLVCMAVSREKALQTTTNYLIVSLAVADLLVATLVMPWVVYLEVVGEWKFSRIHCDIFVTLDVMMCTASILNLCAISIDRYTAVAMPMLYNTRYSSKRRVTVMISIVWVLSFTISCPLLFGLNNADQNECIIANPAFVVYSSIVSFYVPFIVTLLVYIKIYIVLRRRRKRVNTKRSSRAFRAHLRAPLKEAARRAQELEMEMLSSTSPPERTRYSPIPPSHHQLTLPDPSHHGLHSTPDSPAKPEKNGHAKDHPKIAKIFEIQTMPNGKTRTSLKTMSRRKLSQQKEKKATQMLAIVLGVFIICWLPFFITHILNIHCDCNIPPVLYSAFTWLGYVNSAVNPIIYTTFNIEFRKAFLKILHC
Protocol: D2 and D4 receptor-binding affinities of the compounds of Example 3 were evaluated as described in WO95/17400 (incorporated herein by reference) for their ability to reduce binding of ^3 H-spiperone as compared to the reference compound clozapine. The potency of the test compound to reduce ^3 H-spiperone binding directly correlated to its binding affinity for the receptor.
Briefly, the D4 receptor was utilized in the form of membrane preparations obtained from […] cells stably transfected with human D4 receptor (D4.2 sub-type). […] Ready Protein Plus liquid scintillant (5 ml, Beckman) was added and the vials counted by liquid scintillation spectrophotometry (Beckman LSC 6500) after equilibrating for three hours at room temperature to determine total binding (Br).
Non-specific binding for D4 was assayed by incubating membrane homogenate, ^3 H-spiperone and fresh dopamine. Filtrate was counted using the same procedure as in the total binding assay described above to give the non-specific binding value (NSB). Non-specific binding for D2 was similarly assessed, with the exception that (-)-sulpiride was used in place of dopamine.
To assess displacement, membrane homogenate was incubated with ^3 H-spiperone and test compound dissolved in DMSO. Filtrate was counted using the same procedure as in the total binding assay described above, to give the displacement binding value (BD). […]

Ic1ccc(N2CCN(Cc3c[nH]c4ncccc34)CC2)cc1 [3-[4-(4-iodophenyl)-piperazin-1-yl]methyl-1H-pyrrolo[2,3-b]pyridine]
Ki [1]: 0.16 nM | Ki [2]: 2370 nM
